The values below come from patent publication US6809092B2, “Benezene-fused heteroring derivatives and pharmaceutical agents comprising the same as active ingredient” (Ono Pharmaceutical Co., Ltd., priority 2000, dated 2004).

Molecules are shown by their SMILES.

Type in all cases: biochemical
The target of one assay is cathepsin S (Homo sapiens, UniProt P25774). The experiment in a line: Measurement of cathepsin S inhibitory activity. On the procedure: (iii) Measurement of Cathepsin S Inhibitory Activity
Chain of cathepsin S (P25774 115-331, species assumed): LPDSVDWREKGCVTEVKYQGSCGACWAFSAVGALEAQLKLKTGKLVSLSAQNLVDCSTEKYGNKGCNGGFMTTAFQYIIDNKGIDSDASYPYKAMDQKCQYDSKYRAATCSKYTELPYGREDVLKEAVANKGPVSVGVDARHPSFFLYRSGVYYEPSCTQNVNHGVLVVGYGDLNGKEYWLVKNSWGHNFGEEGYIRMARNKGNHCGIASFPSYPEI
10 μL of synthesized substrate (carbobenzoxy-L-leucyl-L-leucyl-L-arguinine-4-methyl-chromanyl-7-amide) solution and 5 μL of cysteine protease inhibitor solution of several concentrations, 75 μL of cathepsin S enzyme reaction buffer (100 mmol/L of sodium phosphate, 2 mmol/L of EDTA, 2 mmol/L of DTT were mixed to adjust to pH 6.5) and 10 μL of cathepsin S enzyme solution were mixed and the increase of fluorescence intensity was measured (λ ex(excitation wavelength)=355 nm, λ em (fluorescence wavelength)=460 nm) when reacted at 37° C.
It was confirmed that the compound of the present invention of formula (I) has an inhibitory effect more than 50% at 10 μM. For example, the inhibitory activity of the compound of example 18 was 98% at 1 μM.

Another assay deals with cathepsin B (Homo sapiens, UniProt P07858). In words: Measurement of cathepsin B inhibitory activity. On the procedure: (ii) Measurement of Cathepsin B Inhibitory Activity
10 μL of Synthesized substrate (carbobenzoxy-L-arginyl-L-arginine-4-methyl-chromanyl-7-amide or carbobenzoxy-L-phenylalanyl-L-arginine-4-methyl-chromanyl-7-amide) solution of several concentrations, 10 μL of cysteine protease inhibitor solution of several concentrations, 70 μL of cathepsin B enzyme reaction buffer (mixture of 400 mmol/L in acetic acid, 4 mmol/L EDTA, 8 mmol/L DDT to adjust to pH 5.5) and 10 μL of cathepsin B enzyme solution were mixed and the increase of fluorescence intensity was measured (λ ex (excitation wavelength)=355 nm, μ em (fluorescence wavelength)=460 nm) when reacted at 37° C.
For example, the inhibitory activity of the compound of example 10 was 95% at 1 μM.

For another assay, the target named is T1, cathepsin K (Homo sapiens, UniProt P43235).
T1 sequence (P43235 115-329): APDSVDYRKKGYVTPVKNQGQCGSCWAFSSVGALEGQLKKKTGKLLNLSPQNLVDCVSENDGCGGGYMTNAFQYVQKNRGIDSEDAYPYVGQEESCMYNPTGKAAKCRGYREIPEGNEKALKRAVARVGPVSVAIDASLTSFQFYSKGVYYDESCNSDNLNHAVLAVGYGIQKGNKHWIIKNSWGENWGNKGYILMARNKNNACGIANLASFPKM
The experiment in a line: Measurement of cathepsin K inhibitory activity. Conditions: Dixon plot, pH 5.5, 37° C. On the procedure:
(i) Measurement of Cathepsin K Inhibitory Activity
65 μL of Cathepsin K enzyme reaction buffer (50 mmol/L of 2-(N-morpholino)ethanesulfonate, 2 mmol/L of ethylenediamine tetraacetate (EDTA) and 4 mmol/L of dithiothreitol (DTT) were mixed to adjust to pH 5.5), 5 μL of cysteine protease inhibitor solution of several concentrations, 20 μL of synthesized substrate (t-butyloxycarbonyl-L-alanyl-glycyl-L-prolyl-L-arginine-4-methyl-chromanyl-7-amide) solution of several concentrations and 10 μL of cathepsin K enzyme solution were mixed and the increase of fluorescence intensity when reacted at 37° C. was measured (λ ex (excitation wavelength)=355 nm, λ em (fluorescence wavelength)=460 nm). As to the substrate and the compound of the present invention, enzyme reactions were carried out in combination of several appropriate concentrations and Dixon plotting was prepared, to define the absolute value of X-coordinate of the intersection point of the graph as Ki value.

The target in another assay is cathepsin L (Homo sapiens, UniProt P07711). In words: Measurement of cathepsin L inhibitory activity. On the procedure:
(iv) Measurement of Cathepsin L Inhibitory Activity
5 μL of Synthesized substrate (carbobenzoxy-L-phenylalanyl-L-arguine-4-methyl-chromanyl-7-amide or L-prolyl-L-phenylalanyl-L-arguinine-4-methyl-chromanyl-7-amide) solution and 5 μL of cysteine protease inhibitor solution of several concentrations, 80 μL of cathepsin L enzyme reaction buffer (400 mmol/L acetic acid, 4 mmol/L EDTA, 8 mmol/L DTT were mixed to adjust to pH 5.5) and 10 μL of cathepsin L enzyme solution were mixed and the increase of fluorescence intensity was measured (λ ex (excitation wavelength)=355 nm, λ em (fluorescence wavelength)=460 nm) when reacted at 37° C.
For example, the inhibitory activity of the compound of example 22(4) was 97% at 1 μM.

Chain of cathepsin L (P07711 114-333, species assumed): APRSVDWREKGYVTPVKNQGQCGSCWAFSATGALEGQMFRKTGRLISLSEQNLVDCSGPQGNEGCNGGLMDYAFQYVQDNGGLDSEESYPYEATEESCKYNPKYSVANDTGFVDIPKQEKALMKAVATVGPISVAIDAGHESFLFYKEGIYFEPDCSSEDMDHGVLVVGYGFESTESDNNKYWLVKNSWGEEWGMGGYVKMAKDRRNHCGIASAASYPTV

On cathepsin S, `CC(C)CC(NC(=O)[C@H](CC(C)C)NC(=O)OCc1ccccc1)C(=O)CN1CCCc2cc(O)ccc2C1` (stereo partly drawn) [example 18] had an inhibition at 1 µM of 98%.
`CC(C)C[C@H](NC(=O)[C@@H]1CCCC[C@@H]1NC(=O)c1ccccc1)C(=O)CN1CCCCc2ccccc21` [example 10] came in with an inhibition at 1 µM at cathepsin B of 95%.
Consider `CC(C)C[C@H](NC(=O)[C@H](CC(C)C)NC(=O)OCc1ccccc1)C(=O)CN1CCCc2ccccc2C1` [3(14), (2S)-N-[(3S)-5-methyl-2-oxo-1-(1,3,4,5-tetrahydro-2H-2-benzazepin-2-yl)-3-hexyl]-4-methyl-2-benzyloxycarbonylamino pentanamide], for which the Ki at cathepsin K came out at 100 nM.
Turning to `CC(C)C[C@H](NC(=O)[C@@H]1CCCC[C@@H]1NC(=O)c1ccccc1)C(=O)CN1CCCc2ccccc2C1` [example 3], at cathepsin K, the Ki is 170 nM.
On to `CC(C)C[C@H](NC(=O)[C@H](CC(C)C)NC(=O)OCc1ccccc1)C(=O)CN1CCN(C(C)C)c2ccccc2C1` [example 22(4), (2S)-N-[(3S)-5-methyl-1-(1-isopropyl-2,3,4,5-tetrahydro-1H-1,4-benzodiazepin-4-yl)-2-oxo-3-hexyl]-2-benzyloxycarbonyl amino-4-methylpentanamide], for which at 1 µM the inhibition on cathepsin L was 97%.
For `CC(C)C[C@H](NC(=O)[C@H](CC(C)C)NC(=O)OCc1ccccc1)C(=O)CN1CCSc2ccccc2C1` [example 31, (2S)-N-[(3S)-5-methyl-2-oxo-1-(2,3,4,5-tetrahydro-1,4-benzothiazepin-4-yl)-3-hexyl]-2-benzyloxycarbonylamino-4-methylpentanamide], the inhibition constant Ki at cathepsin K was 81 nM.
